Assay results from paper PMC2833169, “Anti-malarial activity of a non-piperidine library of next-generation quinoline methanols” (Malaria Journal, 2010).
Values after ≈ are worked out from the molar mass of the structure shown. Like-named read-outs stand apart in the source and are kept apart here.

Legend:
P. falciparum strain D6 = experiment: labeled hypoxanthine susceptibility assay, P. falciparum D6; assay type: cell-based, Plasmodium falciparum; conditions: for IC90: Plasmodium falciparum
Description: The in vitro activities of quinoline methanols against P. falciparum strains W2, D6, TM91C235, and TM90C2A were evaluated using the traditional labeled hypoxanthine assay of Desjardins et al as modified by Milhous et al. These four P. falciparum strains were selected since they have various levels of resistance to conventional anti-malarials.

in vitro [1] = conditions: mouse
Description: General cytotoxicity was assessed by first determining LC50 's against a rodent macrophage (RAW) cell line using the 3-(4,5-dimethylthiazole-2-yl)-2,5-diphenyltetrazolium bromide (MTT) assay as described in one of our earlier studies. This screen was conducted to identify compounds that may require de-selection due to generalized toxicity. […] In vitro neurocytotoxicity was assessed by determining LC50s against primary mouse neurons using the MTT assay as described previously. Inhibition of the A2A and A1 receptors was determined at 200 nM in duplicate by Caliper Biosciences (Hanover, Maryland).

[2] = metabolic stability in mouse liver microsomes; assay type: in vitro ADME; conditions: for half-life at 1 μM: pH 7.4, mouse liver microsomes, read-out: Half-life in mouse micro
Description: (§1) Interesting compounds were also submitted for drug-drug interaction and metabolic stability assays. Low IC50s against specific cytochrome P450 isoforms may indicate the potential for a harmful drug interaction to occur in vivo with substrates of that isoform. A lack of metabolic stability in vitro may indicate potential metabolic instability in vivo, and, therefore, a shorter half-life. Drug interaction potential was evaluated in vitro using BD Gentest (Franklin Lakes, NJ) CYP450 inhibition kits as recommended by the manufacturer. Metabolic stability assessments were conducted using in vitro liver microsomes. […] The reaction is started with the addition of 1 U/mL glucose-6-phosphate dehydrogenase G6PD. The mixture is incubated on a shaking platform at 37°C, and aliquots are taken and quenched with the addition of an equal volume of cold acetonitrile at 0, 10, 20, 30, and 60 min. Samples are centrifuged at 3700 rpm for […] at 20°C to remove debris. Sample quantification is carried out by LC/MS, and metabolic half-life is calculated by log plots of the total ion chromatograph area remaining.

CYP450 2C9 = molecular target: T1, CYP450 2C9 (Homo sapiens, UniProt P11712); experiment: CYP450 inhibition kit (drug-drug interaction), 2C9; assay type: biochemical
T1 construct: purchased BD Gentest (Franklin Lakes, NJ)
Description: as §1, with “Low” for “Interesting compounds were also submitted for drug-drug interaction and metabolic stability assays. Low”

CYP450 2C19 = molecular target: T2, CYP450 2C19 (Homo sapiens, UniProt P33261); experiment: CYP450 inhibition kit (drug-drug interaction), 2C19; assay type: biochemical
T2 construct: purchased BD Gentest (Franklin Lakes, NJ)
Description: as §1, with “Low” for “Interesting compounds were also submitted for drug-drug interaction and metabolic stability assays. Low”

CYP450 2D6 = molecular target: T3, CYP450 2D6 (Homo sapiens, UniProt P10635); experiment: CYP450 inhibition kit (drug-drug interaction), 2D6; assay type: biochemical
T3 construct: purchased BD Gentest (Franklin Lakes, NJ)
Description: as §1, with “Low” for “Interesting compounds were also submitted for drug-drug interaction and metabolic stability assays. Low”

CYP450 3A4 = molecular target: T4, CYP450 3A4 (Homo sapiens, UniProt P08684); experiment: CYP450 inhibition kit (drug-drug interaction), 3A4; assay type: biochemical
T4 construct: purchased BD Gentest (Franklin Lakes, NJ)
Description: as §1, with “Low” for “Interesting compounds were also submitted for drug-drug interaction and metabolic stability assays. Low”

in vitro [3] = conditions: dog, MDCK-MDR1, pH 7.4
Description: For this reason, the apparent permeability of selected compounds across MDR1-transfected MDCK cell monolayers was determined. This assay is an in vitro surrogate of the blood-brain barrier.
Permeability was determined by Absorption Systems (Exton, PA). MDR1-MDCK cell monolayers were grown to confluence on collagen-coated, microporous, polycarbonate membranes in 12-well Costar Transwell plates. […] The permeability assay buffer was Hanks Balanced Salt Solution containing 10 mM HEPES and 15 mM glucose at a pH of 7.4. A known p-glycoprotein inhibitor cyclosporin A (CSA) was also added to the assay buffer at 10 μM. Bovine serum albumin (1%) was added to the receiver well. The dosing solution concentrations of the test compounds were 5.0 μM in the assay buffer. All cell monolayers were first pre-incubated for 30 minutes with assay buffer. After 30 minutes, the buffer was removed, replaced with fresh buffer, and time was recorded as 0. […] Cell monolayers were dosed on the apical side (A-to-B) or basolateral side (B-to-A) and incubated at 37°C with 5% CO2 in a humidified incubator. After 2 hours, aliquots were taken from the receiver chambers. Samples were taken from the donor chamber at 0 and 2 hours. Each determination was performed in duplicate. The lucifer yellow flux was also measured for each monolayer to ensure no damage was inflicted to the cell monolayers during the flux period. All samples were assayed by LC/MS/MS using electrospray ionization.
Apparent permeability in the apical (A-B direction), PappA-B, and percent recovery are reported. Apparent permeability is a measure of the rate of transport across the cell monolayer. Percent recovery refers to the amount of compound recoverable at the end of the assay. Low recovery may indicate non-specific binding to assay plates, instability or accumulation in the cell pellet.
The apparent permeability, Papp, and percent recovery were calculated as follows:
Papp = (dCr/dt) × Vr/(A × C0) (1)
Percent Recovery = 100 × ((Vr × Cr^final) + (Vd × Cd^final))/(Vd × […]) (2)

in vitro [4] = conditions: mouse; remark: listed apart in the source
[5] = D6, read-out: IC90 Pf D6, P. falciparum D6, mefloquine: historical mean +/- SD (n)
[6] = D6, read-out: PF D6 IC90, P. falciparum D6

T4 sequence (P08684 whole entry): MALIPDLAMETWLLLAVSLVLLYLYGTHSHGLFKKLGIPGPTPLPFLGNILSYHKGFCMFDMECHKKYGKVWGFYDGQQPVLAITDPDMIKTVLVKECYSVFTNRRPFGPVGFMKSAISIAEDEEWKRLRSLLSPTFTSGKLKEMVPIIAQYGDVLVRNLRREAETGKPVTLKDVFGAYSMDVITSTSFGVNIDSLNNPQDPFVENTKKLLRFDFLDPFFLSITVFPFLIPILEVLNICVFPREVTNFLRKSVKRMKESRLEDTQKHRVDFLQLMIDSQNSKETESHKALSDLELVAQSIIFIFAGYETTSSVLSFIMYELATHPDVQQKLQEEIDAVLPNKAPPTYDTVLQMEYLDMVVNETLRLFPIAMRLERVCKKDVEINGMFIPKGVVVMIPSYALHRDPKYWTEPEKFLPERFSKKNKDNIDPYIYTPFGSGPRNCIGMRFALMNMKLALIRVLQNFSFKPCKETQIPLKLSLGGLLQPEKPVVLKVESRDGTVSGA
T2 sequence (P33261 whole entry): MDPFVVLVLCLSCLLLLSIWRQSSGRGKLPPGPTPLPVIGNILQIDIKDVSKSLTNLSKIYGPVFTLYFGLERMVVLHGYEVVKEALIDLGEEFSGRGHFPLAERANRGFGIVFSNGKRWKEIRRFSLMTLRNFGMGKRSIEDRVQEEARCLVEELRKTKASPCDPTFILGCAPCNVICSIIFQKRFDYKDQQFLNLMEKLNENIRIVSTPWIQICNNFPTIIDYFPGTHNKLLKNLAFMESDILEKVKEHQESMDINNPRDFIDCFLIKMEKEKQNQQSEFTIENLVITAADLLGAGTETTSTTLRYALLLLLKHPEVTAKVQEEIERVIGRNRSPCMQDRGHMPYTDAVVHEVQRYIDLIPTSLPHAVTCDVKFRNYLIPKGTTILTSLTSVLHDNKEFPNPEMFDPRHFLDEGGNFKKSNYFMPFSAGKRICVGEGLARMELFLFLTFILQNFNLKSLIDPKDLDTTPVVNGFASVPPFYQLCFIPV
T1 sequence (P11712 whole entry): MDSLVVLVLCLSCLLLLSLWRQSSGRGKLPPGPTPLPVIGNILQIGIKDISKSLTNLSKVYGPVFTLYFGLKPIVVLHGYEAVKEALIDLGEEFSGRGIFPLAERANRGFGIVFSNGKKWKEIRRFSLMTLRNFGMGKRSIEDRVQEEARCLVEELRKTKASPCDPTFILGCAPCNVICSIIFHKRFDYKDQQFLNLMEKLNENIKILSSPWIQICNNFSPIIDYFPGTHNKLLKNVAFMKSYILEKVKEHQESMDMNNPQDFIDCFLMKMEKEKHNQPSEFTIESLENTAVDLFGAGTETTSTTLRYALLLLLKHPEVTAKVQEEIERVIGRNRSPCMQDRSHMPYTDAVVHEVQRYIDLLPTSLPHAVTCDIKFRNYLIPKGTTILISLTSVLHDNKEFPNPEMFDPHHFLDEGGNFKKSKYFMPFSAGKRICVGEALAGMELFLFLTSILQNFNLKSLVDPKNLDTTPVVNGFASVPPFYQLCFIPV
T3 sequence (P10635 whole entry): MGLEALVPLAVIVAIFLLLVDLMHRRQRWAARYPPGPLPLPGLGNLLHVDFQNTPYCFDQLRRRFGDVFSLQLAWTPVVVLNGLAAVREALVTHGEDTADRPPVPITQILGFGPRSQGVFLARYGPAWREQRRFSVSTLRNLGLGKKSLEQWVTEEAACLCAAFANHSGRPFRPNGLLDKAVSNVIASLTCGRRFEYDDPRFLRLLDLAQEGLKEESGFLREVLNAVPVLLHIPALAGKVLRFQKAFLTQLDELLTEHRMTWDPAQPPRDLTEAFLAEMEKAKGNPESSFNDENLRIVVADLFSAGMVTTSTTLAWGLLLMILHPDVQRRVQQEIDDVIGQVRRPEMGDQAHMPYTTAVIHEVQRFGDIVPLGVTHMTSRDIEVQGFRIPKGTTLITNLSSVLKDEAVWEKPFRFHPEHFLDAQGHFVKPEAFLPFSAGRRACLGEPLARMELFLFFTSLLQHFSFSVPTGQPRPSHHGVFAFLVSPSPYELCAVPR

SMILES | IC90 (P. falciparum strain D6; [5]) [µg/mL] | IC90 (P. falciparum strain D6; [6]) [µg/mL] | CC50 (in vitro [1]) [µM] | half-life at 1 μM [2] [h] | IC50 (CYP450 2C9) [µM] | IC50 (CYP450 2C19) [µM] | IC50 (CYP450 2D6) [µM] | IC50 (CYP450 3A4) [µM] | Papp A→B at 2 h, 5 μM (in vitro [3]) [×10⁻⁶ cm/s] | IC90 Pf D6 (P. falciparum strain D6; P. falciparum D6, mefloquine: historical mean +/- SD (n)) [µg/mL] | CC50 (in vitro [4]) [µg/mL] | HL in Microsomes ([2]; Figure 3, species of microsomes not given) [min]
CNCC(O)c1cc(C(F)(F)F)nc2c(C(F)(F)F)cccc12 (stereo not drawn) [WR308245] | 0.045 (≈ 0.133 µM) | 0.0452 (≈ 0.134 µM) | > 120 | > 1 | > 40 | 33 | 7.4 | 26 | – | – | – | –
CC(C)NCC(O)c1cc(C(F)(F)F)nc2c(C(F)(F)F)cccc12 (stereo not drawn) [WR308257] | 0.023 (≈ 0.0628 µM) | 0.0232 (≈ 0.0634 µM) | > 120 | > 1 | 37 | 26 | 1.9 | > 40 | 25 | – | – | –
CSCCCNCC(O)c1cc(C(F)(F)F)nc2c(C(F)(F)F)cccc12 (stereo not drawn) [WR308278] | 0.036 (≈ 0.0873 µM) | 0.0363 (≈ 0.0881 µM) | > 120 | 0.167 | 6.3 | 3.6 | 1.4 | 16 | – | – | – | –
OC(CNCCNCc1ccccc1)c1cc(C(F)(F)F)nc2c(C(F)(F)F)cccc12 (stereo not drawn) [WR308396] | 0.03 (≈ 0.0656 µM) | 0.0293 (≈ 0.0639 µM) | 52 | > 1 | 14 | 5.8 | 0.7 | 3.3 | – | 0.029 (≈ 0.0634 µM) | 8.28 (≈ 18.1 µM) | > 60
